Legend:
Type in all cases: binding
[1] = biological target: T1, phosphorylated tau aggregate (p-Tau) (Homo sapiens, UniProt P10636); test: Fluorescence staining of phosphorylated tau aggregate prepared in vitro
T1 construct: made in house; host or cells: Escherichia coli
Experimental: (§1) Tau proteins (8 μM) expressed by Escherichia coli and heparin (1.6 μM) were incubated at 37° C. for 20 days to prepare a tau aggregate. A phosphorylated tau aggregate was similarly prepared using tau proteins phosphorylated with GSK-3β in vitro. The results of Pro-Q diamond staining after performing SDS-PAGE confirmed that the in-vitro phosphorylation was performed with a phosphorylation degree of 6 mol P/mol Tau.
(§2) 10 μM BODIPY-Zn(Dpa) or 10 μM thioflavine T (may be referred to as ThT) were added to the prepared tau aggregate or phosphorylated tau aggregate. After the addition, the mixture was washed twice with 0.5 mM Zn(NO3)2, and a suspension (0.5 μL) of the stained phosphorylated tau aggregate was air-dried on a cover glass and observed under a confocal laser scanning microscope (OLYMPUS FV-1000, Obj. lens 100×).

[2] = biological target: T2, nonphosphorylated Tau aggregate (n-Tau) (Homo sapiens, UniProt P10636); test: Fluorescence staining of nonphosphorylated tau aggregate prepared in vitro; conditions: 10 μM dye
T2 construct: made in house; host or cells: Escherichia coli
T2 sequence (P10636 1-441 isoform P10636-8): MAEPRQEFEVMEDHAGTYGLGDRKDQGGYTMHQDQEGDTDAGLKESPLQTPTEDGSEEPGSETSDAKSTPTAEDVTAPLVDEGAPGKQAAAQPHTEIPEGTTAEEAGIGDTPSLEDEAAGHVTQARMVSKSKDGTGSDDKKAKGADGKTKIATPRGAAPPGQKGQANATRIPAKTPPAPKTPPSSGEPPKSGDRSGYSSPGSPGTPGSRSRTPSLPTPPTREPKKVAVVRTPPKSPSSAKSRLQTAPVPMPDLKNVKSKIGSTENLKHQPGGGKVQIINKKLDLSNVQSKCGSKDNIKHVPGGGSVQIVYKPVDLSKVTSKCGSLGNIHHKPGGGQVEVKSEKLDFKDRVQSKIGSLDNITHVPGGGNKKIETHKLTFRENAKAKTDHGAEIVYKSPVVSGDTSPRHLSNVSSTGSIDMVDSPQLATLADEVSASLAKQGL
Experimental: as §1, §2

[3] = Fluorescence titration of compound 1 with phenyl phosphate
Experimental: (§3) The peptide recognizing abilities of compounds 1 and 2 were evaluated by measuring fluorescence spectra. Measurement was performed under conditions of [compound 1 or 2=10 μM, an optical path length of 1 cm, pH 7.2, 50 mM HEPES buffer and 25° C. The excitation wavelength was λex=323 nm, Ex/Em=15 nm/10 nm, except λex=323 nm, Ex/Em=5 nm/10 nm for only Tau210-2202P, for compound 1, and λex=305 nm, Ex/Em=10 nm/12 nm for compound 2. […] When the peptide was excessively added, this change reached saturation. The association constants calculated from the fluorescence changes were in the order of approx. 10^5 M^−1. […] When the fluorescence spectra of compounds 1 and 2 themselves were compared, compound 2 emitted much weaker fluorescence on the short wavelength side and stronger fluorescence on the long wavelength side than compound 1 (FIG. 8B) ([compound 1 or 2=10 μM, λex=305 nm, Ex/Em=10 nm/12 nm, 50 mM HEPES buffer, 1 cm cell, 25° C.).

[4] = biological target: T3, Tau210-2202P (Homo sapiens, UniProt P10636); test: Fluorescence spectra titration with Tau210-2202P added dropwise; conditions: compound 10 μM, pH 7.2, 50 mM HEPES buffer, 25° C.
T3 construct: made in house; host or cells: chemical solid-phase synthesis
Experimental: as §3

[5] = biological target: T4, Tau204-2162P (i, i+4) (Homo sapiens, UniProt P10636); test: Fluorescence titration of compound 1 with Tau204-2162P (i, i+4)
T4 construct: made in house; host or cells: chemical solid-phase synthesis
Experimental: as §3

[6] = biological target: T5, Tau204-2163P (Homo sapiens, UniProt P10636); test: ITC measurement of affinity, Tau204-2163P; conditions: compound 1 50 μM, peptide 1 mM, 25° C., pH 7.2, 50 mM HEPES
T5 construct: made in house; host or cells: chemical solid-phase synthesis
Experimental: (§4) To determine whether these fluorescence changes are associated with binding, affinity was examined by ITC measurement using, in particular, three peptides of Tau210-2202P, Tau204-2163P and Tau204-2162P(i, i+6). ITC measurement was performed under the following conditions: Tau210-2202P, [compound 1]=100 μM and [peptide]=2 mM; Tau204-2163P, [compound 1]=50 μM and [peptide]=1 mM; Tau204-2162P(i, i+6), [compound 1]=100 μM and [peptide]=3.24 mM; the number of titrations, 24; measurement temperature, 25° C.; pH 7.2; and 50 mM HEPES buffer. FIG. 11 illustrates caloric changes when Tau210-2202P was added to compound 1. FIG. 12 illustrates various thermodynamic parameters obtained from the caloric changes in the three different peptides. The caloric changes associated with the dropping of the peptide was an entropy-driven endothermic process (ΔS>0, ΔH>0). This change can be attributed to dehydration of water molecules hydrated to the compound molecules and the phosphorylated peptides along with the binding. The association constants obtained in Tau210-2202P and Tau204-2163P (K=3.33×10^5 M^−1 and K=2.88×10^5 M^−1, respectively) were similar to the values calculated from the fluorescence changes. […] On the other hand, N=0.51 was obtained in Tau204-2162P(i, i+6), and it appears that two compound molecules individually interact with two phosphate groups on the peptide.

[7] = biological target: T5, Tau204-2163P; test: Fluorescence titration of compound 1 with Tau204-2163P
Experimental: as §3

[8] = system: peptides with two phosphate groups positioned with a distance of (i, i+2); test: Fluorescence titration of compound 1 with (i, i+2) diphosphorylated tau peptides
Experimental: as §3

[9] = biological target: T6, peptides with two phosphate groups with a distance of (i, i+4) or (i, i+6) (Homo sapiens, UniProt P10636); test: Fluorescence titration of compound 1 with (i, i+4) or (i, i+6) diphosphorylated tau peptides
T6 construct: made in house; host or cells: chemical solid-phase synthesis
Experimental: as §3

[10] = biological target: T7, Tau204-2162P(i, i+6) (Homo sapiens, UniProt P10636); test: Fluorescence titration of compound 1 with Tau204-2162P (i, i+6)
T7 construct: made in house; host or cells: chemical solid-phase synthesis
Experimental: as §3

[11] = biological target: T3, Tau210-2202P; test: ITC measurement of affinity, Tau210-2202P; conditions: compound 1 100 μM, peptide 2 mM, 25° C., pH 7.2, 50 mM HEPES
Experimental: as §4

[12] = biological target: T7, Tau204-2162P(i, i+6); test: ITC measurement of affinity, Tau204-2162P(i, i+6); conditions: compound 1 100 μM, peptide 3.24 mM, 25° C., pH 7.2
Experimental: as §4

T1 sequence (P10636 1-441 isoform P10636-8): as above

| staining of aggregate ([1]; p-Tau in the presence of pyrophosphoric acid (PPi)) | staining of aggregate [2] | SMILES | staining of aggregate ([1]; p-Tau, 10 μM dye) | fluorescence change [3] | association constants calculated from the fluorescence changes [4] | fluorescence change on dropwise addition of Tau210-2202P [4] | fluorescence change [5] | association constant K (ITC) [6] | fluorescence change [7] | binding constants to the peptides calculated from the fluorescence changes ([8]; (i, i+2) peptides) | fluorescence change on dropwise addition of peptide ([8]; (i, i+2) peptides, compound 1 10 μM) | Ka ([8]; (i, i+2) phosphate groups on tau sequence, summary) | fluorescence change on dropwise addition of peptide ([9]; (i, i+4) or (i, i+6) peptides) | binding to two phosphate groups ([9]; positions (i, i+4) or (i, i+6), summary) | fluorescence change [10] | association constant K (ITC) [11] | stoichiometry N (ITC) [12] |
| --- | --- | --- | --- | --- | --- | --- | --- | --- | --- | --- | --- | --- | --- | --- | --- | --- | --- |
| stained the aggregate | is observed | Cc1ccc2c(c1)sc(-c1ccc(N(C)C)cc1)[n+]2C.[Cl-] [thioflavine T, reference compound] | fluorescence of ThT and that of BODIPY-Zn(Dpa) overlapped | – | – | – | – | – | – | – | – | – | – | – | – | – | – |
| – | – | CN(Cc1ccccn1)Cc1cc(/C=C/c2ccnc(CN(C)Cc3ccccn3)c2)ccn1.O=[N+]([O-])[O-].O=[N+]([O-])[O-].O=[N+]([O-])[O-].O=[N+]([O-])[O-].[Zn+2].[Zn+2] [compound 1] | – | no marked fluorescence change | approx. 10^5 M^−1 | dual wavelength fluorescence changes | no marked fluorescence change occurred | 288000 M⁻¹ | dual wavelength fluorescence changes occurred | approx. 10^5 | dual wavelength fluorescence changes | ~10^5 M^−1 | did not show marked fluorescence changes | did not bind | no marked fluorescence change occurred | 333000 M⁻¹ | 0.51 |
